Data as given in patent publication US20050008896A1, “Luminous organic compound and manufacturing method” (Orient Chemical Ind., Ltd., priority 2003, published 2005).
Read-outs that look alike come from different tables or passages of the source.

Tests used:
[1] = Fluorescence (photoluminescence) intensity in ethanol, fluorescence spectrophotometer RF-5300PC; type: physicochemical; conditions: for Fluorescence Intensity / center of Luminous Wave: 25 mg of compound in 100 ml of ethanol; for Relative Value of Fluorescence Intensity, Relative Value (2) (Related to Metal Complex Intermediate 3): metal complex intermediate 3 regarded as 1.00
Experimental: Fluorescence intensity of each obtained compound was measured in order to evaluate fluorescence property.
A method of the evaluation is as follows. 25 mg of each compound was dissolved in 100 ml of ethanol respectively. The fluorescence intensity, photoluminescence intensity, was measured by a fluorescence spectrophotometer RF-5300PC that is available from Shimadzu Corporation. The measured results of the luminous organic compounds 1 to 9 and 11, the comparative compounds 1 to 3 and the metal complex intermediate 1 to 3 are indicated in Table 3. […] The relative value (2) of the fluorescence intensity indicates the value related to the fluorescence intensity of the metal complex intermediate 3 regarded as 1.00.

[2] = stood at room temperature overnight
Experimental: A method of measurement of the solubility is as follows. After the prescribed amount of the compound was added to each solvent, it was heated by water bath and irradiated supersonic wave for 1 hour. It was stood at room temperature overnight, and filtrated. Obtained residue was dried. Amount of insoluble residue was weighed, and solubility (w/v %) was determined.

[3] = comparative compound 3 regarded as 1.00

Row | Structure (SMILES) | Relative Value of Fluorescence Intensity, Relative Value (1) (Related to Comparative Compound 3) [1] | Fluorescence Intensity [1] | center of Luminous Wave [1] | Relative Value of Fluorescence Intensity, Relative Value (2) (Related to Metal Complex Intermediate 3) [1] | Solubility, Ethanol [2] | Solubility, Ethyl Acetate [2] | Solubility, Methyl Ethyl Ketone [2] | Solubility, Toluene [2] | Solubility, Xylene [2] | Relative Value of Fluorescence Intensity, Relative Value (1) (Related to Comparative Compound 3) [1, 3]
1 | C[N+](C)(C)CCCC[N+](C)(C)C.O=C(C=C([O-])C(F)(F)F)c1ccccc1.O=C(C=C([O-])C(F)(F)F)c1ccccc1.O=C(C=C([O-])C(F)(F)F)c1ccccc1.O=C(C=C([O-])C(F)(F)F)c1ccccc1.O=C(C=C([O-])C(F)(F)F)c1ccccc1.O=C(C=C([O-])C(F)(F)F)c1ccccc1.O=C(C=C([O-])C(F)(F)F)c1ccccc1.O=C(C=C([O-])C(F)(F)F)c1ccccc1.[Eu+3].[Eu+3] [Luminous Organic Compound 9] | 1.00 | 502 | (612 nm) | 1.02 | 0.11 w/v % | 3.55 w/v % | over 10.0 w/v % | 0.30 w/v % | 0.12 w/v % | –
2 | C[N+](C)(C)CCCC[N+](C)(C)C.O=C(C=C([O-])C(F)(F)F)c1cccs1.O=C(C=C([O-])C(F)(F)F)c1cccs1.O=C(C=C([O-])C(F)(F)F)c1cccs1.O=C(C=C([O-])C(F)(F)F)c1cccs1.O=C(C=C([O-])C(F)(F)F)c1cccs1.O=C(C=C([O-])C(F)(F)F)c1cccs1.O=C(C=C([O-])C(F)(F)F)c1cccs1.O=C(C=C([O-])C(F)(F)F)c1cccs1.[Eu+3].[Eu+3] [Luminous Organic Compound 8] | 1.02 | 510 | (613 nm) | 1.03 | 0.15 w/v % | 0.88 w/v % | over 10.0 w/v % | 0.18 w/v % | 0.10 w/v % | –
3 | CCCC[N+](C)(C)CCCC[N+](C)(C)CCCC.O=C(C=C([O-])C(F)(F)F)c1ccc2ccccc2c1.O=C(C=C([O-])C(F)(F)F)c1ccc2ccccc2c1.O=C(C=C([O-])C(F)(F)F)c1ccc2ccccc2c1.O=C(C=C([O-])C(F)(F)F)c1ccc2ccccc2c1.O=C(C=C([O-])C(F)(F)F)c1ccc2ccccc2c1.O=C(C=C([O-])C(F)(F)F)c1ccc2ccccc2c1.O=C(C=C([O-])C(F)(F)F)c1ccc2ccccc2c1.O=C(C=C([O-])C(F)(F)F)c1ccc2ccccc2c1.[Eu+3].[Eu+3] [Luminous Organic Compound 6] | 1.51 | 758 | (613 nm) | 1.53 | 0.14 w/v % | over 10.0 w/v % | over 10.0 w/v % | 3.86 w/v % | 3.22 w/v % | –
4 | O=C(C=C([O-])C(F)(F)F)c1ccc2ccccc2c1.O=C(C=C([O-])C(F)(F)F)c1ccc2ccccc2c1.O=C(C=C([O-])C(F)(F)F)c1ccc2ccccc2c1.[Eu+3] [Metal Complex Intermediate 1] | – | 665 | (613 nm) | 1.35 | – | – | – | – | – | 1.32
5 | C[N+](C)(C)CCCC[N+](C)(C)C.O=C(C=C([O-])C(F)(F)F)c1ccc2ccccc2c1.O=C(C=C([O-])C(F)(F)F)c1ccc2ccccc2c1.O=C(C=C([O-])C(F)(F)F)c1ccc2ccccc2c1.O=C(C=C([O-])C(F)(F)F)c1ccc2ccccc2c1.O=C(C=C([O-])C(F)(F)F)c1ccc2ccccc2c1.O=C(C=C([O-])C(F)(F)F)c1ccc2ccccc2c1.O=C(C=C([O-])C(F)(F)F)c1ccc2ccccc2c1.O=C(C=C([O-])C(F)(F)F)c1ccc2ccccc2c1.[Eu+3].[Eu+3] [Luminous Organic Compound 2] | 1.48 | 744 | (613 nm) | 1.50 | 0.19 w/v % | 1.54 w/v % | over 10.0 w/v % | 0.24 w/v % | 0.10 w/v % | –
6 | O=C(C=C([O-])C(F)(F)F)c1cccs1.O=C(C=C([O-])C(F)(F)F)c1cccs1.O=C(C=C([O-])C(F)(F)F)c1cccs1.[Eu+3] [Metal Complex Intermediate 2] | – | 566 | (613 nm) | 1.15 | – | – | – | – | – | 1.13
7 | O=C(C=C([O-])C(F)(F)F)c1ccccc1.O=C(C=C([O-])C(F)(F)F)c1ccccc1.O=C(C=C([O-])C(F)(F)F)c1ccccc1.[Eu+3] [Metal Complex Intermediate 3] | – | 493 | (613 nm) | (1.00) | – | – | – | – | – | 0.98
8 | C[N+](C)(C)c1ccc(-c2ccc([N+](C)(C)C)cc2)cc1.O=C(C=C([O-])C(F)(F)F)c1ccc2ccccc2c1.O=C(C=C([O-])C(F)(F)F)c1ccc2ccccc2c1.O=C(C=C([O-])C(F)(F)F)c1ccc2ccccc2c1.O=C(C=C([O-])C(F)(F)F)c1ccc2ccccc2c1.O=C(C=C([O-])C(F)(F)F)c1ccc2ccccc2c1.O=C(C=C([O-])C(F)(F)F)c1ccc2ccccc2c1.O=C(C=C([O-])C(F)(F)F)c1ccc2ccccc2c1.O=C(C=C([O-])C(F)(F)F)c1ccc2ccccc2c1.[Eu+3].[Eu+3] [Luminous Organic Compound 5] | 1.28 | 644 | – | 1.30 | 0.37 w/v % | 3.46 w/v % | over 10.0 w/v % | 0.30 w/v % | 0.52 w/v % | –
9 | C[N+](C)(C)c1ccc([N+](C)(C)C)cc1.O=C(C=C([O-])C(F)(F)F)c1ccc2ccccc2c1.O=C(C=C([O-])C(F)(F)F)c1ccc2ccccc2c1.O=C(C=C([O-])C(F)(F)F)c1ccc2ccccc2c1.O=C(C=C([O-])C(F)(F)F)c1ccc2ccccc2c1.O=C(C=C([O-])C(F)(F)F)c1ccc2ccccc2c1.O=C(C=C([O-])C(F)(F)F)c1ccc2ccccc2c1.O=C(C=C([O-])C(F)(F)F)c1ccc2ccccc2c1.O=C(C=C([O-])C(F)(F)F)c1ccc2ccccc2c1.[Eu+3].[Eu+3] [Luminous Organic Compound 4] | 1.52 | 766 | (613 nm) | 1.55 | 0.08 w/v % | over 10.0 w/v % | over 10.0 w/v % | 0.23 w/v % | 0.22 w/v % | –
10 | C[N+](C)(C)CCCCCC[N+](C)(C)C.O=C(C=C([O-])C(F)(F)F)c1ccc2ccccc2c1.O=C(C=C([O-])C(F)(F)F)c1ccc2ccccc2c1.O=C(C=C([O-])C(F)(F)F)c1ccc2ccccc2c1.O=C(C=C([O-])C(F)(F)F)c1ccc2ccccc2c1.O=C(C=C([O-])C(F)(F)F)c1ccc2ccccc2c1.O=C(C=C([O-])C(F)(F)F)c1ccc2ccccc2c1.O=C(C=C([O-])C(F)(F)F)c1ccc2ccccc2c1.O=C(C=C([O-])C(F)(F)F)c1ccc2ccccc2c1.[Eu+3].[Eu+3] [Luminous Organic Compound 3] | 1.63 | 822 | (613 nm) | 1.66 | 0.14 w/v % | 9.01 w/v % | over 10.0 w/v % | 0.31 w/v % | 0.18 w/v % | –
11 | C[N+](C)(C)CCCC[N+](C)(C)C.O=C(C=C([O-])C(F)(F)F)c1ccc2ccccc2c1.O=C(C=C([O-])C(F)(F)F)c1ccc2ccccc2c1.O=C(C=C([O-])C(F)(F)F)c1ccc2ccccc2c1.O=C(C=C([O-])C(F)(F)F)c1ccc2ccccc2c1.O=C(C=C([O-])C(F)(F)F)c1ccc2ccccc2c1.O=C(C=C([O-])C(F)(F)F)c1ccc2ccccc2c1.O=C(C=C([O-])C(F)(F)F)c1ccc2ccccc2c1.O=C(C=C([O-])C(F)(F)F)c1ccc2ccccc2c1.[Tb+3].[Tb+3] [Luminous Organic Compound 10] | – | – | – | – | 0.062 w/v % | 1.21 w/v % | over 10.0 w/v % | 0.43 w/v % | 0.32 w/v % | –
